Experimental data taken from ChEMBL document CHEMBL1201862, “PubChem BioAssay data set” (2004).
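Test compounds were applied to cells in 96-well plates for 48 hours at 5 doses. GI50: concentration for 50% inhibition of growth.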 Active and inactive are the calls of the source. No stated cut-off is given here; in the data, active = GI50 up to about 1.1 µM and inactive = higher.

Tests used:
Test in all cases: DTP human tumour cell line panel, 48 h
TK-10 = system: TK-10
K562 = system: K562
LOX IMVI = system: LOX IMVI
RPMI-8226 = system: RPMI-8226
RXF 393 = system: RXF 393
SK-MEL-28 = system: SK-MEL-28
COLO 205 = system: COLO 205
SK-MEL-5 = system: SK-MEL-5
UO-31 = system: UO-31
M14 = system: M14
Malme-3M = system: Malme-3M
KM12 = system: KM12
NCI-H522 = system: NCI-H522
HCT-116 = system: HCT-116
A549 = system: A549
U-251 = system: U-251
OVCAR-8 = system: OVCAR-8
MCF7 = system: MCF7
T47D = system: T47D

| SMILES | GI50 (TK-10) | GI50 (K562) | GI50 (LOX IMVI) | GI50 (RPMI-8226) | GI50 (RXF 393) | GI50 (SK-MEL-28) | GI50 (COLO 205) | GI50 (SK-MEL-5) | GI50 (UO-31) | GI50 (M14) | GI50 (Malme-3M) | GI50 (KM12) | GI50 (NCI-H522) | GI50 (HCT-116) | GI50 (A549) | GI50 (U-251) | GI50 (OVCAR-8) | GI50 (MCF7) | GI50 (T47D) |
| --- | --- | --- | --- | --- | --- | --- | --- | --- | --- | --- | --- | --- | --- | --- | --- | --- | --- | --- | --- |
| COC(=O)C1(O)c2ccccc2N=C2C1CCN2C (centres undefined) | > 100 µM (inactive) | > 100 µM (inactive) | > 100 µM (inactive) | > 100 µM (inactive) | > 100 µM (inactive) | > 100 µM (inactive) | > 100 µM (inactive) | > 100 µM (inactive) | > 100 µM (inactive) | > 100 µM (inactive) | > 100 µM (inactive) | > 100 µM (inactive) | > 100 µM (inactive) | > 100 µM (inactive) | > 100 µM (inactive) | > 100 µM (inactive) | > 100 µM (inactive) |  |  |
| c1ccc(Cc2nc(Cc3n[nH]c(Cc4ccccc4)n3)n[nH]2)cc1 | > 100 µM (inactive) | > 100 µM (inactive) | > 100 µM (inactive) | > 100 µM (inactive) | > 100 µM (inactive) | > 100 µM (inactive) | > 100 µM (inactive) | > 100 µM (inactive) | > 100 µM (inactive) | > 100 µM (inactive) |  | > 100 µM (inactive) | > 100 µM (inactive) | > 100 µM (inactive) | > 100 µM (inactive) | > 100 µM (inactive) | > 100 µM (inactive) | > 100 µM (inactive) |  |
| COC(=O)C(=O)C(C(=O)C(=O)Nc1ccc(C)cc1C)c1nc2ccc(Cl)cc2nc1O (centres undefined) | > 100 µM (inactive) |  | > 100 µM (inactive) |  | > 100 µM (inactive) | > 100 µM (inactive) | > 100 µM (inactive) | > 100 µM (inactive) | 47.6 µM (inactive) | > 100 µM (inactive) |  | > 100 µM (inactive) | > 100 µM (inactive) | > 100 µM (inactive) | > 100 µM (inactive) | > 100 µM (inactive) | > 100 µM (inactive) | > 100 µM (inactive) |  |
| O=C(COc1ccc(OCC(=O)N2C(=O)CC(=O)N(c3ccc(Cl)cc3)C2=S)cc1)N1C(=O)CC(=O)N(c2ccc(Cl)cc2)C1=S | 37.3 µM (inactive) | 19.4 µM (inactive) |  | 49.5 µM (inactive) | 31.6 µM (inactive) | 50.4 µM (inactive) | 18.2 µM (inactive) | 29.7 µM (inactive) | 31.7 µM (inactive) | 32 µM (inactive) | 3.26 µM (inactive) | 15.7 µM (inactive) | 17 µM (inactive) | 10.1 µM (inactive) | 22.6 µM (inactive) | 33.3 µM (inactive) |  | 35.1 µM (inactive) |  |
| Cc1cccc(/C(Br)=C2/OC(=O)c3ccccc32)c1 | > 100 µM (inactive) |  |  | > 100 µM (inactive) | > 100 µM (inactive) | > 100 µM (inactive) | > 100 µM (inactive) | > 100 µM (inactive) |  | > 100 µM (inactive) | > 100 µM (inactive) | > 100 µM (inactive) | > 100 µM (inactive) | > 100 µM (inactive) | > 100 µM (inactive) | > 100 µM (inactive) | > 100 µM (inactive) | > 100 µM (inactive) |  |
| CSc1nc2c(c(=O)[nH]1)N=C(c1ccc([N+](=O)[O-])cc1)CC(c1ccccc1)N2 (centres undefined) |  | 34.4 µM (inactive) | 28.1 µM (inactive) | 22 µM (inactive) | 23.2 µM (inactive) | 22.7 µM (inactive) | 55.1 µM (inactive) | 20.9 µM (inactive) | 50 µM (inactive) | 29.7 µM (inactive) | 55.5 µM (inactive) | 17.9 µM (inactive) | 23.9 µM (inactive) | 21.4 µM (inactive) | 32.4 µM (inactive) | 33.6 µM (inactive) | 34.5 µM (inactive) | 23.7 µM (inactive) |  |
| COC(=O)Cc1c(C(=O)CC(C)(C)n2cnc(CCN3C(=O)CCC3=O)c2)[nH]c2ccccc12 | > 100 µM (inactive) | > 100 µM (inactive) | > 100 µM (inactive) |  | 15.4 µM (inactive) | > 100 µM (inactive) | > 100 µM (inactive) | > 100 µM (inactive) | 37.5 µM (inactive) | > 100 µM (inactive) | > 100 µM (inactive) | > 100 µM (inactive) | 32.4 µM (inactive) | > 100 µM (inactive) | > 100 µM (inactive) | > 100 µM (inactive) | > 100 µM (inactive) | > 100 µM (inactive) |  |
| Nc1n[n+]([O-])c2cc([N+](=O)[O-])ccc2[n+]1[O-] | 30.2 µM (inactive) | 2.14 µM (inactive) | 1.38 µM (inactive) | 2.11 µM (inactive) |  | 29 µM (inactive) | 3.85 µM (inactive) | 7.71 µM (inactive) | 10.5 µM (inactive) | 4.84 µM (inactive) |  |  | 2.07 µM (inactive) | 2.9 µM (inactive) | 18.9 µM (inactive) | 4.61 µM (inactive) | 3.44 µM (inactive) | 3.36 µM (inactive) | 3.95 µM (inactive) |
| COc1ccccc1/N=N/c1c(O)c(S(=O)(=O)O)cc2cc(S(=O)(=O)O)ccc12 | > 100 µM (inactive) | > 100 µM (inactive) | > 100 µM (inactive) | > 100 µM (inactive) | > 100 µM (inactive) | > 100 µM (inactive) | > 100 µM (inactive) | > 100 µM (inactive) | > 100 µM (inactive) | > 100 µM (inactive) | > 100 µM (inactive) | > 100 µM (inactive) | > 100 µM (inactive) | > 100 µM (inactive) | > 100 µM (inactive) | > 100 µM (inactive) | > 100 µM (inactive) |  | > 100 µM (inactive) |
| COc1ccc(/C=N/n2c(=O)[nH]c3ccccc3c2=O)cc1 | > 100 µM (inactive) | > 100 µM (inactive) | > 100 µM (inactive) | > 100 µM (inactive) |  | > 100 µM (inactive) | > 100 µM (inactive) | > 100 µM (inactive) | > 100 µM (inactive) | > 100 µM (inactive) |  | > 100 µM (inactive) |  | > 100 µM (inactive) | > 100 µM (inactive) | > 100 µM (inactive) | > 100 µM (inactive) | > 100 µM (inactive) | > 100 µM (inactive) |
| Nc1ncnc2c1ncn2C1(CO)OC(CO)C(O)C1O (centres undefined) | > 100 µM (inactive) |  | > 100 µM (inactive) | > 100 µM (inactive) | > 100 µM (inactive) | > 100 µM (inactive) | > 100 µM (inactive) | > 100 µM (inactive) |  | > 100 µM (inactive) | > 100 µM (inactive) | > 100 µM (inactive) | > 100 µM (inactive) | > 100 µM (inactive) | > 100 µM (inactive) | > 100 µM (inactive) |  |  |  |
| COc1cc(O)c2c(c1)O[C@@H]1OCC[C@H]21 | > 100 µM (inactive) | > 100 µM (inactive) | > 100 µM (inactive) | > 100 µM (inactive) |  | > 100 µM (inactive) | > 100 µM (inactive) | > 100 µM (inactive) | > 100 µM (inactive) | > 100 µM (inactive) | > 100 µM (inactive) | > 100 µM (inactive) |  | > 100 µM (inactive) | > 100 µM (inactive) | > 100 µM (inactive) | > 100 µM (inactive) |  |  |
| COc1ccc(CCN2CCc3c(C)c(C#N)c4nc5ccccc5n4c32)cc1OC | 64.1 µM (inactive) | 15.6 µM (inactive) | 37.7 µM (inactive) |  | 30.8 µM (inactive) | 39.5 µM (inactive) | 30.3 µM (inactive) | 19.6 µM (inactive) | 36.3 µM (inactive) | > 100 µM (inactive) | 28.7 µM (inactive) |  | 21.4 µM (inactive) | 28.7 µM (inactive) | 45.9 µM (inactive) | 15.6 µM (inactive) | 35.3 µM (inactive) | 18 µM (inactive) |  |
| Cc1ccc(S(=O)(=O)OC2C(C3COC(C)(C)O3)OC3OC(C)(C)OC32)cc1 (centres undefined) | > 100 µM (inactive) | > 100 µM (inactive) | > 100 µM (inactive) |  | > 100 µM (inactive) | > 100 µM (inactive) |  | > 100 µM (inactive) | > 100 µM (inactive) | > 100 µM (inactive) | > 100 µM (inactive) | > 100 µM (inactive) | > 100 µM (inactive) | > 100 µM (inactive) | > 100 µM (inactive) | > 100 µM (inactive) | > 100 µM (inactive) |  | > 100 µM (inactive) |
| CCCCC/C(=N\c1[nH]cnc1C(N)=O)OCC | > 100 µM (inactive) | > 100 µM (inactive) | > 100 µM (inactive) | > 100 µM (inactive) | > 100 µM (inactive) | > 100 µM (inactive) | > 100 µM (inactive) | > 100 µM (inactive) | 55.5 µM (inactive) | 94.2 µM (inactive) | > 100 µM (inactive) | > 100 µM (inactive) | 75 µM (inactive) | > 100 µM (inactive) | > 100 µM (inactive) | > 100 µM (inactive) | > 100 µM (inactive) | > 100 µM (inactive) |  |
| C=C1C2C[C@@H]3O[C@H]4C[C@H]5O[C@@]6(C[C@@H]7O[C@]8(C[C@H](C)[C@@H]9O[C@@H]%10CC(C=O)O[C@@H]%10C[C@@H]9O8)C[C@H](C)[C@@H]7O6)C[C@H]5O[C@H]4[C@H](C)[C@H]3OC(=O)C[C@H]3CC[C@@H]4OC5[C@H]6O[C@]7(CC[C@H]8CC(=C)[C@H](CC[C@@H](C[C@H]1C)O2)O8)CC6O[C@@H]5[C@@H](O7)[C@H]4O3 (some centres undefined) | 0.00771 µM (active) | < 0.0001 µM (active) | < 0.0001 µM (active) | < 0.0001 µM (active) | < 0.0001 µM (active) |  | < 0.0001 µM (active) | < 0.0001 µM (active) | < 0.0001 µM (active) | < 0.0001 µM (active) |  | < 0.0001 µM (active) | < 0.0001 µM (active) | < 0.0001 µM (active) | < 0.0001 µM (active) | < 0.0001 µM (active) | < 0.0001 µM (active) | < 0.0001 µM (active) |  |
